Entries after “also recorded” stand apart in the source; their conditions may differ.
What was measured:
pDCs = experiment: Stimulation of pDCs isolated from bone marrow, cytokine ELISA; type: cell-based, mouse; settings: 24 hr
Source text: Mice and Bone Marrow Cells: C57BL/6 mice were obtained from The Jackson Laboratories and maintained in specific pathogen-free conditions in conventional animal facilities at MedImmune, Inc. TLR9 deficient and MyD88 deficient mice and their litter mate controls were maintained in animal facility of University of Massachusetts Medical School. RAGE deficient mice generated were obtained from Heidelburg Germany and maintained at the University of Massachusetts Medical School. Fresh bone marrow cells were collected and pDCs were isolated from bone marrow cells using miltenyibiotec's plasmacytoid dendritic cell isolation kit. pDCs were re-suspended in Opti-MEM (Invitrogen) and stimulated […] cell/well for 24 hr and cytokine level in the supernatant was measured by ELISA.

CpG A DNA = experiment: Tryptophan emission for CpG-A binding to HMGB1; settings: intrinsic tryptophan fluorescence; read-out: apparent Kd for CpG A DNA
Description: Tryptophan emission for CpG-A binding to HMGB1: Fluorescence titrations and spectra of HMGB-1 were carried out at 25° C. with a SPEX Fluoromax-3 spectrofluorimeter, monitoring the HMGB-1 intrinsic tryptophan emission at 347 nm (8 nm bandwidth) with 280 nm excitation (3 nm bandwidth) in a masked capped dual-pathlength (0.2×1.0 cm) quartz cell (Hellma Cells, Inc., Jamaica, N.Y.) upon stepwise addition of CpG-A (0.5 mM) to a 1.7 μM solution of HMGB-1 in 1:10 Dulbecco Phosphate Buffered Saline (PBS) solution (Invitrogen, Carlsbad, Calif.). Complex formation between HMGB-1 and the nucleic acid was monitored by the change in the initial fluorescence of the protein. HMGB-1 fractional saturation was inferred from the ratio of observed fluorescence change to maximal change (at saturation), Flim, for each of the nucleic acid additions. Binding affinity was calculated from graphs of relative fluorescence intensity versus [nucleic acid base]/[protein].The occluded binding site size (n) was derived from the intersection of the extrapolated initial slope with the limiting fluorescence plateau in the equilibrium binding isotherms. The measurements for assessment of Tryptophan emission are reviewed in detail in Lakowicz, 2000, Photochem. Photobiol. 72, 421-437.

mouse macrophages = experiment: TNF-a induction in mouse macrophages; type: cell-based
Description: TNF-a Induction: To examine mRNA levels macrophages were derived from mouse bone marrow using M-CSF. Macrophages were then stimulated by LPS, E. coli produced recombinant HMGB1 or HMGB1 purified from bovine thymus for indicated length of time and mRNA is measured by Taqman. To examine protein levels thioglycant activated mouse peritoneal macrophages were stimulated with 10 μg/mL of HMGB1 purified from bovine thymus or recombinant HMGB1 generated from E. coli for 24 hr. Cytokines in the supernatant were measured by ELISA.

[1] = test system: lupus plasma induced IFIT1 mRNA in human PBMCs; experiment: IFIT1 mRNA induction in PBMCs by lupus plasma; type: cell-based; settings: 20% lupus plasma
Description: Human Cell Culture and Isolation: Fresh PBMCs from healthy donors were prepared by Ficoll-hypaque fractionation and cultured at a density of 2×10^5Cells/0.1 ml in 96-well flat-bottomed plates in culture medium. 20% of lupus plasma was incubated with PBMC for 24 hrs. Some wells included antibodies anti-HMGB1, RAGE Fc or human IgG together with lupus plasma. After 24 hrs, PBMCs were collected and lysed. Total RNA was purified using the 96-well Total RNA Purification Kit (Gentra, Minneapolis, Minn.). 11 μl of this RNA was reverse-transcribed to cDNA in a 20 μl reaction using SuperScript III RNase H-Reverse Transcriptase (Invitrogen, Carlsbad, Calif.). cDNA obtained from each sample was diluted 1:[…] was amplified in a 25 μl real-time PCR reaction using 0.4 μM of sense and antisense primers and the 2×iQ SYBR Green Supermix (Bio-Rad, Hercules, Calif.). GAPDH was used as a housekeeping gene control. Primer sequences for IFIG and GAPDH were: IFIT1 forward, 5′-[…]-3′ (SEQ ID NO: 111); IFIT1 reverse, 5′-AGTCAGCAGCCAGTCTCAG-3′ (SEQ ID NO: 112); GAPDH forward, 5′-CAACGGATTTGGTCGTATT-3′ (SEQ ID NO: 113); GAPDH reverse, 5′-[…]-3′ (SEQ ID NO: 114).

[2] = test system: native activated HMG1 stimulated IL-6 release from human PBMCs; experiment: Inhibition of cytokine release from PBMCs, native activated HMG1; type: cell-based
Description: Inhibition of Cytokine Release: Human peripheral blood mononuclear cells (PBMCs) were isolated from the peripheral blood of healthy volunteers by a density gradient centrifugation. Freshly drawn heparinized whole blood was mixed with two volume of PBS. The diluted blood was gently layered on the surface of Histopaque-1077 (Sigma-Aldrich) and centrifuged at 400×g, at RT for 30 minute. PBMCs were collected from the interface between the plasma and the density gradient solution. After washing in PBS 3×, the purified PBMCs were resuspended in RPMI-1640 medium (GIBCO BRL) containing 100 U/ml penicillin, 100 μg/ml streptomycin and […] β-mercaptoethanol. 1×10^5 of cells was added in each well of 96-well cell culture plates. […]
The culture media were analyzed for inflammatory cytokines using Beadlyte human multi-cytokine flex kit from Upstate by Luminex 100 (Luminex Corp.). Proinflammatory cytokines TNF-α, IL-6, IL-1β and IL-12 (p40) were measured for cells stimulated with recombinant HMG1. In addition, TNF-α, IL-6, IL-1β and IL-8 were measured for cells stimulated with native activated HMG1.
Cytokine release data is presented as mean of triplicates±standard deviations. […] It was calculated by PRISM program.

AM14 B cells [3] = experiment: DNA immune complex and AM14 cell binding assay; type: cell-based, mouse
Description: DNA immune complex and AM14 cell binding assay DNA immune complexes were preformed by mixing spent culture supernatants with 15 μg/ml of PL2-3 (anti-nucleosome IgG2a). AM14 FcγRIIB−/− cells were incubated with a mixture of spent culture supernatants (CML sup.) and 15 μg/ml of PL2-3 (anti-nucleosome IgG2a) on ice. To analyze the effect of RAGE-Fc on the ability of the complexes to bind AM14 B cells, RAGE-Fc (or Fc control) was added to the immune complexes for an additional 2 h on ice. The chromatin immune complexes, or antibody alone, were added to 0.5×10^6 splenic purified AM14 FcγRIIB−/− B. HMGB1 in complexes was detected using an anti-HMGB1-Biotinylated antibody (MedImmune, Inc.) and PL2-3 was detected by an anti-IgG2a-FITC.

AM14 B cells [4] = experiment: AM14 proliferation assay; type: cell-based, mouse
Description: AM14 proliferation assay: Purified AM14 B cells were preincubated with RAGE-Fc or control human IgG1 for 30 min at 37° C., and stimulated with 0.1 μg/ml of PL2-3 for 24 h at 37° C. Cells were then pulsed with [^3H]thymidine for 6 h.

[5] = test system: LPS+HMG1 induced TNF-a release (TLR4 signaling); experiment: Inhibition of HMG1 mediated enhancement of TLR4 signaling, LPS+HMG1 TNF-a release; type: cell-based, mouse
[6] = test system: CpG2216+thymus HMG1 induced IFN-a release (TLR9 signaling); experiment: Inhibition of HMG1 mediated enhancement of TLR9 signaling, CpG2216 + thymus HMG1 in bone marrow cells; type: cell-based; settings: mouse bone marrow cells
Description: HMGB1+TLR Ligand: Freshly isolated bone marrow cells were stimulated with TLR ligands (TLR3:PolyIC@5 μg/mL; TLR4:LPS@2.5 ng/mL; TLR5:flagellin@0.25 μg/mL; TLR7:polyU@4 μg/mL or R837@5 μg/mL; TLR9:CpG2216@1 μM) with or without presence of thymus HMGB1 (10 μg/mL) for 24 hr. Cytokines in the supernatant were measured by ELISA.
Inhibition of HMG1 Mediated Enhancement of TLR Signaling: Freshly isolated bone marrow cells were stimulated with TLR9 ligand CpG2216 (0.3 μM) and thymus HMGB1 (10 μg/mL) in the presence of different concentration of the anti-HMGB1 mAb E11 or control human IgG for 24 hr and IFN-a in the supernatant was measured by ELISA. CpG2216, HMGB1 and nonstimulatory DNA were used alone or in combination as controls for the assay.

5′-GGGGGACGATCGTCGGGGGG-3′ [CpG DNA]
IFN-α production (pDCs): 32 ± 5 pg/mL | TNF-α production (pDCs): 43 ± 5 pg/mL

HMGB1: HMGB1 purified from bovine thymus
Kd (CpG A DNA): 70 nM | induction of TNF-a mRNA levels (mouse macrophages; 2 hours, listed as native HMG1): ~30 fold | induction of TNF-a mRNA levels (mouse macrophages; 2 hours, listed as thymus HMG1): roughly 30 fold | induction of TNF-a mRNA levels (mouse macrophages; 8 hour): ~15 fold | increase in TNF-a protein levels (mouse macrophages; 24 hours, supernatant): no induction | IFN-α production (pDCs): ineffective

RAGE-Fc: RAGE-Fc fusion protein (soluble RAGE), RAGE antagonist
inhibition of induction of IFIT1 mRNA by lupus plasma [1]: approx 75% | block of IL-6 release induced by native activated HMG1 [2]: able to block IL-6 released induced by native activated HMG1 | inhibition of binding of chromatin/DNA immune complexes to AM14 B cells (AM14 B cells [3]): blocks binding of chromatin IC to AM14 B cells; also recorded: inhibited binding of HMGB1-containing DNA immune complexes to the surface of B cells | effect on TLR2, TLR4 ligand induced proliferation or BCR mediated B cell activation (AM14 B cells [4]): had no effect | inhibition of DNA immune complex (PL2-3) dependent proliferation of AM14 B cells (AM14 B cells [4]; thymidine incorporation): reduced proliferation; also recorded: markedly inhibited PL2-3-dependent proliferation of AM14 B cells | inhibition of TNF-a release induced by LPS+HMG1 [5]: inhibits the release of TNF-a induced by LPS+HMG1; also recorded: could be blocked; also recorded: inhibit the release of TNFa induced by LPS+HMG1 | inhibition of IFN-a release induced by CpG + thymus HMG1 [6]: inhibit IFN-a release | inhibition of IFN-a release induced by CpG + thymus HMG1 ([6]; listed as RAGE/Fc): significantly blocked CpG/HMGB1 complex induced IFN-α | inhibition of IFN-a release induced by CpG alone ([6]; listed as RAGE/Fc): did not block CpG-A induced IFN-α production | inhibition of IFN-a release induced by CpG + thymus HMG1 ([6]; listed as Rage/Fc): to a less extent; also recorded: inhibited the release of INF-a induced by CpG2216+thymus HMG1 | inhibition of IFN-a release induced by CpG alone ([6]; listed as Rage/Fc): Neither E11, G4 or Rage/Fc inhibited

lipopolysaccharide [LPS, reference compound]
induction of TNF-a mRNA levels (mouse macrophages; 2 hours): ~66 fold | induction of TNF-a mRNA levels (mouse macrophages; 8 hour): ~7 fold
